Experimental data reported in article PMC10277484, “Bioactivity and nutritional quality of nutgall (Rhus semialata Murray), an underutilized fruit of Manipur” (Frontiers in Nutrition, 2023).

Tests used:
[1] = ABTS radical scavenging assay; assay type: biochemical; conditions: 30 min in the dark, 734 nm
Procedure: ABTS radical scavenging activity was performed as described by Singh et al. ([26]). The reaction mixture containing 0.1 mL of extract was mixed with 1.9 mL ABTS radical ([…] = 1.0 ± 0.01) then incubated for 30 min in the dark, and the absorbance was read at 734 nm. RSA and IC50 of the extract were calculated as described above.

[2] = DPPH radical scavenging assay; assay type: biochemical; conditions: 30 min in the dark, 517 nm
Procedure: 0.1 mL of each of the five different concentrations of the extract was mixed with 1.9 mL DPPH reagent prepared in methanol (A517 = 1.1 + 0.01). The mixture was incubated for 30 min in the dark and then read at 517 nm. The radical scavenging activity (RSA) of each extract was calculated as follows ([26]).
RSA%=(Acontrol−Asample)/AcontrolX100%
From the RSA%, 50 inhibitory concentration (IC50) was calculated and expressed in μg/mL.

Bacillus subtilis = assay: Kirby-Bauer disk diffusion antibacterial assay; assay type: cell-based; conditions: 6 mm disc, extract 0.5 mg, chloramphenicol 0.025 mg, 24 h 37°C
Procedure: (§1) The Kirby-Bauer disk diffusion method ([31]) was used for the evaluation of the antibacterial activity of MExt. Four test organisms, viz.; Salmonella typhimurium (ATTC13311), Escherichia coli (MTCC 739), Bacillus subtilis (MTTCC 121), Staphylococcus aureus (ATCC 1026), were grown in Mueller-Hinton broth (MHB) at 37°C and 160 rpm and brought to its exponential phase. The sample was prepared by dissolving the MExt in 50% DMSO (at 25 mg/mL w/v concentration) and filtering through a (0.22 μm) syringe filter. Hundred microliter of each bacterial strain, equivalent to 0.5 McFarland turbidity were spread over sterile Mueller-Hinton agar (MHA) plate using a sterile swab. A 20 μL sample (0.5 mg) impregnated in a 6 mm sterile disc was seeded on the freshly spread MHA plates and incubated for 24 h at 37°C. Chloramphenicol 0.025 mg was used as a positive control. One reagent control containing the buffer and solvent used was also included in the experiment. The zone of inhibition was recorded using a Vernier caliper.

Staphylococcus aureus = assay: Kirby-Bauer disk diffusion antibacterial assay; assay type: cell-based; conditions: 6 mm disc, extract 0.5 mg, chloramphenicol 0.025 mg, 24 h 37°C
Procedure: as §1

Escherichia coli = assay: Kirby-Bauer disk diffusion antibacterial assay; assay type: cell-based; conditions: 6 mm disc, extract 0.5 mg, chloramphenicol 0.025 mg, 24 h 37°C, read-out: Inhibition zone, Eschericia coli
Procedure: as §1

Salmonella typhi = assay: Kirby-Bauer disk diffusion antibacterial assay; assay type: cell-based; conditions: Salmonella enterica, 24 h, read-out: Inhibition zone, Salmonella typhi
[3] = tested on: HeLa (human cervical cancer cell line); assay: In vitro cytotoxicity, Sulforhodamine B (SRB) assay; assay type: cell-based; conditions: 48 h, read-out: IC50 against HeLa cells
Procedure: The cytotoxic activity of MExt was investigated using Sulforhodamine B colorimetric (SRB) assay against HeLa (human cervical cancer cell line). The cell was maintained in a Dulbecco’s Modified Eagle Medium (DMEM). […] The monolayer cells were then fixed with 10% Trichloroacetic acid (TCA) for 1 h at […] followed by washing with water. After drying, the cell plates were stained with SRB for 30 min and then washed with 1% acetic acid. The SRB dye bound to the protein was then dissolved by adding 10 mM Tris base (pH 10.5). The SRB dye released was quantified by taking absorbance at 510 nm in Varioskan Flash Multimode Reader (Thermo Fisher Scientific, United States) ([32]).

Structure (SMILES): O=C1O[C@H]([C@@H](O)CO)C(O)=C1O [Ascorbic acid]
- ABTS (IC50) [1]: 5.4 µg/mL
- ABTS (IC50) ([1]; listed as Vitamin C): 3.00 ± 0.40 µg/mL
- DPPH (IC50) [2]: 3 µg/mL
- DPPH (IC50) ([2]; listed as Vitamin C): 5.40 ± 0.30 µg/mL

Structure (SMILES): O=C(N[C@H](CO)[C@H](O)c1ccc([N+](=O)[O-])cc1)C(Cl)Cl [Chloramphenicol]
- zone of inhibition at 25 µg/disc (Bacillus subtilis): 30.2 ± 1.6 mm
- zone of inhibition at 25 µg/disc (Staphylococcus aureus): 29 ± 1 mm
- zone of inhibition at 25 µg/disc (Escherichia coli): 28 ± 2.2 mm
- zone of inhibition at 25 µg/disc (Salmonella typhi): 30 ± 2 mm

Structure (SMILES): COc1cccc2c1C(=O)c1c(O)c3c(c(O)c1C2=O)C[C@@](O)(C(=O)CO)C[C@@H]3O[C@H]1C[C@H](N)[C@H](O)[C@H](C)O1 [Doxorubicin]
- IC50 [3]: < 5 µg/mL
